Test results published in ChEMBL document CHEMBL4725318, “New vinyl-1,2,4-triazole derivatives as antimicrobial agents: Synthesis, biological evaluation and molecular docking studies” (2020).
Values after ≈ are worked out from the molar mass of the structure shown.

Key:
Format in all cases: functional
Bacillus subtilis [1] = experiment: Antibacterial activity against Bacillus subtilis by microdilution method
Pseudomonas fluorescens [2] = experiment: Antibacterial activity against Pseudomonas fluorescens by microdilution method
Erwinia amylovora [3] = experiment: Antibacterial activity against Erwinia amylovora by microdilution method
[4] = test system: Pectobacterium carotovorum; experiment: Antibacterial activity against Erwinia carotovora by microdilution method
Xanthomonas campestris [5] = experiment: Antibacterial activity against Xanthomonas campestris by microdilution method
Bacillus subtilis [6] = experiment: Bactericidal activity against Bacillus subtilis
Pseudomonas fluorescens [7] = experiment: Bactericidal activity against Pseudomonas fluorescens
Erwinia amylovora [8] = experiment: Bactericidal activity against Erwinia amylovora
[9] = test system: Pectobacterium carotovorum; experiment: Bactericidal activity against Erwinia carotovora
Xanthomonas campestris [10] = experiment: Bactericidal activity against Xanthomonas campestris
Aspergillus fumigatus [11] = experiment: Antifungal activity Aspergillus fumigatus by microdilution method
Aspergillus versicolor [12] = experiment: Antifungal activity Aspergillus versicolor by microdilution method
Aspergillus ochraceus [13] = experiment: Antifungal activity Aspergillus ochraceus by microdilution method
Aspergillus niger [14] = experiment: Antifungal activity Aspergillus niger by microdilution method
Trichoderma viride [15] = experiment: Antifungal activity Trichoderma viride by microdilution method
Talaromyces funiculosus [16] = experiment: Antifungal activity Penicillium funiculosum by microdilution method
Penicillium ochrochloron [17] = experiment: Antifungal activity Penicillium ochrochloron by microdilution method
Penicillium cyclopium [18] = experiment: Antifungal activity Penicillium verrucosum var. cyclopium by microdilution method
Aspergillus fumigatus [19] = experiment: Fungicidal activity Aspergillus fumigatus
Aspergillus versicolor [20] = experiment: Fungicidal activity Aspergillus versicolor
Aspergillus ochraceus [21] = experiment: Fungicidal activity Aspergillus ochraceus
Aspergillus niger [22] = experiment: Fungicidal activity Aspergillus niger
Trichoderma viride [23] = experiment: Fungicidal activity Trichoderma viride
Talaromyces funiculosus [24] = experiment: Fungicidal activity Penicillium funiculosum
Penicillium ochrochloron [25] = experiment: Fungicidal activity Penicillium ochrochloron
Penicillium cyclopium [26] = experiment: Fungicidal activity Penicillium verrucosum var. cyclopium

Row | SMILES | MIC (Bacillus subtilis [1]) [µM] | MIC (Pseudomonas fluorescens [2]) [µM] | MIC (Erwinia amylovora [3]) [µM] | MIC [4] [µM] | MIC (Xanthomonas campestris [5]) [µM] | MBC (Bacillus subtilis [6]) [µM] | MBC (Pseudomonas fluorescens [7]) [µM] | MBC (Erwinia amylovora [8]) [µM] | MBC [9] [µM] | MBC (Xanthomonas campestris [10]) [µM] | MIC (Aspergillus fumigatus [11]) [µM] | MIC (Aspergillus versicolor [12]) [µM] | MIC (Aspergillus ochraceus [13]) [µM] | MIC (Aspergillus niger [14]) [µM] | MIC (Trichoderma viride [15]) [µM] | MIC (Talaromyces funiculosus [16]) [µM] | MIC (Penicillium ochrochloron [17]) [µM] | MIC (Penicillium cyclopium [18]) [µM] | MFC (Aspergillus fumigatus [19]) [µM] | MFC (Aspergillus versicolor [20]) [µM] | further results
1 | O=C(/C(=C/c1ccc([N+](=O)[O-])cc1)n1cncn1)c1ccc(Cl)cc1 | 1.3 (≈ 0.461 µg/mL) | 0.6 (≈ 0.213 µg/mL) | 1.3 (≈ 0.461 µg/mL) | 1.3 (≈ 0.461 µg/mL) | 1.3 (≈ 0.461 µg/mL) | 1.3 (≈ 0.461 µg/mL) | 1.3 (≈ 0.461 µg/mL) | 1.3 (≈ 0.461 µg/mL) | 1.3 (≈ 0.461 µg/mL) | 1.3 (≈ 0.461 µg/mL) | 100 (≈ 35.5 µg/mL) | 100 (≈ 35.5 µg/mL) | 70 (≈ 24.8 µg/mL) | 140 (≈ 49.7 µg/mL) | 70 (≈ 24.8 µg/mL) | 140 (≈ 49.7 µg/mL) | 100 (≈ 35.5 µg/mL) | 140 (≈ 49.7 µg/mL) | 190 (≈ 67.4 µg/mL) | 190 (≈ 67.4 µg/mL) | MFC (Aspergillus ochraceus [21]): 100 µM (≈ 35.5 µg/mL); MFC (Aspergillus niger [22]): 190 µM (≈ 67.4 µg/mL); MFC (Trichoderma viride [23]): 100 µM (≈ 35.5 µg/mL); MFC (Talaromyces funiculosus [24]): 190 µM (≈ 67.4 µg/mL); MFC (Penicillium ochrochloron [25]): 190 µM (≈ 67.4 µg/mL); MFC (Penicillium cyclopium [26]): 190 µM (≈ 67.4 µg/mL)
2 | CC(C)(C)c1cc(/C=C(/C(=O)c2ccc(Cl)cc2Cl)n2cncn2)cc(C(C)(C)C)c1O | 17 (≈ 8.03 µg/mL) | 9 (≈ 4.25 µg/mL) | 17 (≈ 8.03 µg/mL) | 4.5 (≈ 2.13 µg/mL) | 17 (≈ 8.03 µg/mL) | 17 (≈ 8.03 µg/mL) | 9 (≈ 4.25 µg/mL) | 17 (≈ 8.03 µg/mL) | 9 (≈ 4.25 µg/mL) | 17 (≈ 8.03 µg/mL) | 80 (≈ 37.8 µg/mL) | 80 (≈ 37.8 µg/mL) | 60 (≈ 28.3 µg/mL) | 80 (≈ 37.8 µg/mL) | 30 (≈ 14.2 µg/mL) | 120 (≈ 56.7 µg/mL) | 80 (≈ 37.8 µg/mL) | 160 (≈ 75.6 µg/mL) | 160 (≈ 75.6 µg/mL) | 160 (≈ 75.6 µg/mL) | MFC (Aspergillus ochraceus [21]): 160 µM (≈ 75.6 µg/mL); MFC (Aspergillus niger [22]): 160 µM (≈ 75.6 µg/mL); MFC (Trichoderma viride [23]): 80 µM (≈ 37.8 µg/mL); MFC (Talaromyces funiculosus [24]): 160 µM (≈ 75.6 µg/mL); MFC (Penicillium ochrochloron [25]): 160 µM (≈ 75.6 µg/mL); MFC (Penicillium cyclopium [26]): 320 µM (≈ 151 µg/mL)
3 | c1ccc(-c2ccc(C(c3ccccc3)n3ccnc3)cc2)cc1 (stereo not given) [BIFONAZOLE] |  |  |  |  |  |  |  |  |  |  | 480 (≈ 149 µg/mL) | 320 (≈ 99.3 µg/mL) | 480 (≈ 149 µg/mL) | 480 (≈ 149 µg/mL) | 480 (≈ 149 µg/mL) | 640 (≈ 199 µg/mL) | 640 (≈ 199 µg/mL) | 320 (≈ 99.3 µg/mL) | 640 (≈ 199 µg/mL) | 640 (≈ 199 µg/mL) | MFC (Aspergillus ochraceus [21]): 640 µM (≈ 199 µg/mL); MFC (Aspergillus niger [22]): 640 µM (≈ 199 µg/mL); MFC (Trichoderma viride [23]): 640 µM (≈ 199 µg/mL); MFC (Talaromyces funiculosus [24]): 810 µM (≈ 251 µg/mL); MFC (Penicillium ochrochloron [25]): 810 µM (≈ 251 µg/mL); MFC (Penicillium cyclopium [26]): 640 µM (≈ 199 µg/mL)
4 | O=C(/C(=C/c1ccccc1)n1cncn1)c1ccc(Cl)cc1Cl | 2.9 (≈ 0.998 µg/mL) | 2.9 (≈ 0.998 µg/mL) | 2.9 (≈ 0.998 µg/mL) | 2.9 (≈ 0.998 µg/mL) | 2.9 (≈ 0.998 µg/mL) | 5.8 (≈ 2 µg/mL) | 2.9 (≈ 0.998 µg/mL) | 2.9 (≈ 0.998 µg/mL) | 5.8 (≈ 2 µg/mL) | 2.9 (≈ 0.998 µg/mL) | 160 (≈ 55.1 µg/mL) | 80 (≈ 27.5 µg/mL) | 100 (≈ 34.4 µg/mL) | 160 (≈ 55.1 µg/mL) | 50 (≈ 17.2 µg/mL) | 220 (≈ 75.7 µg/mL) | 160 (≈ 55.1 µg/mL) | 220 (≈ 75.7 µg/mL) | 220 (≈ 75.7 µg/mL) | 220 (≈ 75.7 µg/mL) | MFC (Aspergillus ochraceus [21]): 220 µM (≈ 75.7 µg/mL); MFC (Aspergillus niger [22]): 220 µM (≈ 75.7 µg/mL); MFC (Trichoderma viride [23]): 100 µM (≈ 34.4 µg/mL); MFC (Talaromyces funiculosus [24]): 440 µM (≈ 151 µg/mL); MFC (Penicillium ochrochloron [25]): 440 µM (≈ 151 µg/mL); MFC (Penicillium cyclopium [26]): 440 µM (≈ 151 µg/mL)
5 | O=C(N[C@H](CO)[C@H](O)c1ccc([N+](=O)[O-])cc1)C(Cl)Cl [CHLORAMPHENICOL] | 0.3 (≈ 0.0969 µg/mL) | 0.5 (≈ 0.162 µg/mL) | 0.15 (≈ 0.0485 µg/mL) | 0.25 (≈ 0.0808 µg/mL) | 0.1 (≈ 0.0323 µg/mL) | 0.3 (≈ 0.0969 µg/mL) | 0.5 (≈ 0.162 µg/mL) | 0.3 (≈ 0.0969 µg/mL) | 0.5 (≈ 0.162 µg/mL) | 0.1 (≈ 0.0323 µg/mL) |  |  |  |  |  |  |  |  |  |  | 
6 | CN(C)c1ccc(/C=C(/C(=O)c2ccc(-c3ccccc3)cc2)n2cncn2)cc1 | 2.5 (≈ 0.986 µg/mL) | 2.5 (≈ 0.986 µg/mL) | 2.5 (≈ 0.986 µg/mL) | 2.5 (≈ 0.986 µg/mL) | 5.1 (≈ 2.01 µg/mL) | 5.1 (≈ 2.01 µg/mL) | 2.5 (≈ 0.986 µg/mL) | 2.5 (≈ 0.986 µg/mL) | 5.1 (≈ 2.01 µg/mL) | 5.1 (≈ 2.01 µg/mL) | 250 (≈ 98.6 µg/mL) | 250 (≈ 98.6 µg/mL) | 130 (≈ 51.3 µg/mL) | 250 (≈ 98.6 µg/mL) | 90 (≈ 35.5 µg/mL) | 180 (≈ 71 µg/mL) | 130 (≈ 51.3 µg/mL) | 250 (≈ 98.6 µg/mL) | 510 (≈ 201 µg/mL) | 510 (≈ 201 µg/mL) | MFC (Aspergillus ochraceus [21]): 250 µM (≈ 98.6 µg/mL); MFC (Aspergillus niger [22]): 510 µM (≈ 201 µg/mL); MFC (Trichoderma viride [23]): 130 µM (≈ 51.3 µg/mL); MFC (Talaromyces funiculosus [24]): 250 µM (≈ 98.6 µg/mL); MFC (Penicillium ochrochloron [25]): 250 µM (≈ 98.6 µg/mL); MFC (Penicillium cyclopium [26]): 510 µM (≈ 201 µg/mL)
